In ChEMBL document CHEMBL4513160, “CO-ADD screening of MMV (CH) - Small Polar Library”:
Converted amounts (≈) assume the structure as drawn.

Legend:
Pseudomonas aeruginosa [1] = assay: Antibacterial activity against Pseudomonas aeruginosa PAO397 [PAO1 d(mexAB-oprM) d(mexCD-oprJ) d(mexEF-oprN) d(mexJKL) d(mexXY) d(opmH)] (CO-ADD:GN_211); MIC in CAMBH media using NBS plates, by OD(600); assay type: functional; conditions: ASSAY_TEST Inhibition of Bacterial Growth, detection method Absorption (OD600), MEDIA CAMHB, plate type 384well, CORNING #3640, time 18 hr
Pseudomonas aeruginosa [2] = assay: microbe, parasite or virus in culture; conditions: ATCC 27853, 18 h, ASSAY_TEST Inhibition of Bacterial Growth, detection method Absorption (OD600), MEDIA CAMHB, plate type 384well, NBS, CORNING #3640
Description: Antibacterial activity against Pseudomonas aeruginosa ATCC 27853 (CO-ADD:GN_042); MIC in CAMBH media using NBS plates, by OD(600)

Acinetobacter baumannii = assay: microbe, parasite or virus in culture; conditions: ATCC 19606, 18 h, ASSAY_TEST Inhibition of Bacterial Growth, detection method Absorption (OD600), MEDIA CAMHB, plate type 384well, NBS, CORNING #3640
Description: Antibacterial activity against Acinetobacter baumannii ATCC 19606 (CO-ADD:GN_034); MIC in CAMBH media using NBS plates, by OD600

| MIC (Pseudomonas aeruginosa [1]) [µM] | MIC (Pseudomonas aeruginosa [2]) [µM] | MIC (Acinetobacter baumannii) [µM] | Compound |
| --- | --- | --- | --- |
| 300 (≈ 84.4 µg/mL) | > 300 | > 300 | O=C(NCCO)Nc1cc(F)ccc1N1CCCCC1 |
| > 300 | > 300 | > 300 | NCCNS(=O)(=O)c1ccc(F)c(C(F)(F)F)c1 |
| > 300 | > 300 | > 300 | NCC(CO)Cc1ccc(Br)cc1 (configuration not stated) |
| > 300 | > 300 | > 300 | OCC(O)CNc1ccnc2ccc(Br)cc12 (configuration not stated) |
| > 300 | > 300 | > 300 | CC(=O)Nc1ccc(-c2ccc(C#N)nc2)cc1 |
| > 300 | > 300 | > 300 | Cn1ccnc1-c1noc(NC(=O)c2ccccn2)n1 |
| > 300 | > 300 | > 300 | NC(=O)CSc1nnc(-c2cc(Br)ccc2O)[nH]1 |
| > 300 | > 300 | > 300 | NC(=O)Nc1cccc(C(=O)Nc2ccc(Cl)cn2)c1 |
| > 300 | 60 (≈ 16.6 µg/mL) | > 300 | COCCOc1ccc(CNC(=O)c2ccoc2)cn1 |
